According to patent US11376215B2, “Feed composition for improving intraintestinal environment” (AJINOMOTO CO., INC., priority 2017, dated 2022):

Key:
Format in all cases: cell-based
bifidobacteria [1] = assay: Experimental Example 1-1: addition test of amino acid and fructo-oligosaccharide to human feces suspension; conditions: amino acid added together with 0.5% FOS, anaerobic culture 4 days at 37° C., quantitative PCR, compared with FOS alone
Description: The PBS solutions for the Examples and Comparative Examples shown in Table 1-1 were prepared and used as media for a feces culture. PBS alone was used as a control. Fructo-oligosaccharide (FOS) manufactured by Wako Pure Chemical Industries, Ltd. (#064-02385) was used.
(§1) Thereafter, 10 ml of each solution was dispensed into glass vials and the glass vials were sterilized by autoclave, made anaerobic, and sealed with a butyl rubber stopper. The feces suspension was prepared by collecting about 10 g of feces from 3 healthy individuals (one man and two women) in their 20s to 40s and suspending same in 80 ml of anaerobic PBS. The feces suspension was added to each vial by 0.5 ml, placed in an incubator at 37° C., and anaerobically cultured for 4 days with tumble blending once per day. After completion of the culture, an intestinal bacterial pellet was obtained from the entire amount of the culture medium by centrifugation (8,000×g, 5 min). DNA was extracted from this pellet using ISOFECAL for BeadsBeat (manufactured by NIPPON GENE CO., LTD.), and quantitative PCR was performed using GeneAce SYBR qPCR Mix α (manufactured by NIPPON GENE CO., LTD.). Quantitative PCR was performed under the conditions of 45 cycles of 95° C. for 30 sec and 60° C. for 60 sec after 95° C. for 10 min. Primers for quantitative PCR used for detection bifidobacteria are as follows:
(§2) Using the results obtained by quantitative PCR, the relative amount when the control is 1 was calculated, and the results were normalized with z-score.

bifidobacteria [2] = assay: Experimental Example 2: addition test of amino acid and galacto-oligosaccharide to human feces suspension; conditions: amino acid added together with 0.5% GOS, anaerobic culture 4 days, quantitative PCR, compared with GOS alone
Description: as §1
The PBS solutions for the Examples and Comparative Examples shown in Table 2 were prepared and used as media for a feces culture. […]
as §2

bifidobacteria [3] = assay: Experimental Example 1-2: addition test of amino acid and fructo-oligosaccharide to human feces suspension; conditions: amino acid added together with 0.5% FOS, anaerobic culture 4 days, quantitative PCR, compared with FOS alone
Description: as §1
The PBS solutions for the Examples and Comparative Examples shown in Table 1-2 were prepared and used as media for a feces culture. […]
as §2

Structure (SMILES)	proliferation of bifidobacteria (bifidobacteria [1])	proliferation of bifidobacteria (bifidobacteria [2])	proliferation of bifidobacteria (bifidobacteria [3])
C[C@H](N)C(=O)O [Ala, L-alanine]	greater proliferation of bifidobacteria than that with FOS alone	–	–
NC(=O)CC[C@H](N)C(=O)O [Gln, L-glutamine]	greater proliferation of bifidobacteria than that with FOS alone	–	–
N[C@@H](CCC(=O)O)C(=O)O [Glu, L-glutamic acid]	greater proliferation of bifidobacteria than that with FOS alone	greater proliferation of bifidobacteria than that with GOS alone	–
N[C@@H](Cc1c[nH]cn1)C(=O)O [His, L-histidine]	–	–	greater proliferation of bifidobacteria than that with FOS alone
CC[C@H](C)[C@H](N)C(=O)O [Ile, L-isoleucine]	greater proliferation of bifidobacteria than that with FOS alone	–	–
NCCCC[C@H](N)C(=O)O [Lys, L-lysine]	greater proliferation of bifidobacteria than that with FOS alone	greater proliferation of bifidobacteria than that with GOS alone	–
O=C(O)[C@@H]1CCCN1 [Pro, L-proline]	–	–	greater proliferation of bifidobacteria than that with FOS alone
CC(C)[C@H](N)C(=O)O [Val, L-valine]	greater proliferation of bifidobacteria than that with FOS alone	–	–
